The values below are quoted from earlier work in paper PMC1976805, “Preclinical pharmacokinetics of benznidazole” (British Journal of Cancer, 1984).

Where two headings read alike, the source gives them in different places.

For data set [1] the following is noted: ref Workman, 1980b and 1983, cited from earlier work.
The conditions of data set [2]: mice; ref Workman, 1980b and 1983; cited from earlier work.
Data set [3] deals with plasma proteins. Conditions: ref Workman, 1980b and 1983; cited from earlier work.
For data set [4] the following is noted: sheep; ref Miller, personal communication; cited from earlier work.
For data set [5] the following is noted: large crossbred dogs; ref Workman, 1980b and 1983; cited from earlier work.
The conditions of data set [6]: humans; ref Workman, 1980b and 1983; cited from earlier work.
The conditions of data set [7]: spontaneous dog neoplasms; ref Workman, 1980b and 1983; cited from earlier work.
For data set [8] the following is noted: mice; ref Workman, 1980b and 1983; cited from earlier work. The source holds these as a separate data set.
The conditions of data set [9]: EMT6 flank tumours; ref Workman, 1980b and 1983; cited from earlier work.

On to `COCC(O)Cn1ccnc1[N+](=O)[O-]` (centres unmarked) [MISO, 1-(2-nitro-imidazol-1-yl)-3-methoxypropan-2-ol], for which the “peripheral nerve/whole plasma ratio” value in [1] (dog) was 82%. Further, the brain/whole plasma ratio in data set [1] (dogs) was 70%; in data set [8] it was 90%. In addition, the “elimination t1/2” value was 0.333 to 0.667 h in data set [2], 0.667 to 1 h in data set [4] and 4 to 5 h in data set [5]. For the same molecule, the “appreciable plasma protein binding” value in data set [3] was “does not occur”. In addition, the “usual average t1/2” value in data set [6] is 10 to 12 h. In addition, the tissue/whole plasma ratio in [7] was 61%. For the same molecule, the “overall tissue/whole plasma ratio” value in data set [9] was 87%. For the same molecule, the “steady-state tumour/whole plasma ratio (about)” value in [9] is listed as “about 90%”.
